≈ marks a conversion by molar mass, not a printed value. Where “and” joins values, the source holds several entries; their conditions need not be identical. Equal values may be shown once.
Experiments:
Type in all cases: cell-based
[1] = test system: E. coli GNS-2601; experiment: Time-kill curves; conditions: E. coli GNS2601; for growth- and kill rates k ('+' = growth, unmarked = kill rate): first four hours
[2] = test system: E. coli ATCC 25922; experiment: Time-kill curves; conditions: E. coli ATCC25922; for growth- and kill rates k ('+' = growth, unmarked = kill rate): first four hours
[3] = test system: E. coli ATCC 25922, NRZ-00401, NRZ-00302 and GNS-2601; experiment: Time-kill curves, statements on the four E. coli strains
[4] = test system: E. coli NRZ-00401; experiment: Time-kill curves; conditions: E. coli NRZ00401; for growth- and kill rates k ('+' = growth, unmarked = kill rate): first four hours
[5] = test system: E. coli NRZ-00302; experiment: Time-kill curves; conditions: E. coli NRZ00302; for growth- and kill rates k ('+' = growth, unmarked = kill rate): first four hours
[6] = test system: E. coli GNS-2601 (ESBL CTX-M-15); experiment: MIC, broth microdilution (CLSI), CAMHB; conditions: Escherichia coli; monosubstance; Ec GNS2601; read-out: MIC
Method: (§1) MIC-testing was done immediately after preparation of the dilutions. All tests were done in duplicate and repeated once on a separate occasion.
(§2) 1 mL of the bacterial suspension was transferred into a tube containing 10 mL CAMHB and was vortexed thoroughly. (S. pneumoniae 1 mL in 10 mL CAMHB+5% lysed horse blood). Columns 1-15 of the 96-well plate were inoculated with 5 μL of this suspension (1-15=antibacterial solution, 16=sterile medium without test item).
(§3) Turbidity was read visually with a mirror.

[7] = test system: E. coli NRZ-00302 (metallo β-lactamase NDM-1); experiment: MIC, broth microdilution (CLSI), CAMHB; conditions: Escherichia coli; monosubstance; Ec NRZ00302; read-out: MIC
Method: as §1, §2, §3

[8] = test system: E. coli ATCC 25922; experiment: MIC, broth microdilution (CLSI), CAMHB; conditions: Escherichia coli; monosubstance; Ec ATCC25922; read-out: MIC
Method: as §1, §2, §3

[9] = test system: E. coli NRZ-00401 (metallo β-lactamase VIM-1); experiment: MIC, broth microdilution (CLSI), CAMHB; conditions: Escherichia coli; monosubstance; Ec NRZ00401; read-out: MIC
Method: as §1, §2, §3

[10] = test system: P. aeruginosa NRZ-00425 (VIM-2 β-lactamase); experiment: microbe, parasite or virus in culture; conditions: Pseudomonas aeruginosa, checkerboard, read-out: MIC (agent alone)
Source text: The checkerboard consists of columns in which each well contains the same amount of antibacterial A being over i dilutions along the x-axis, and in rows in which each well contains the same amount of antibacterial B over j dilutions on the y-axis, i.e. serial dilutions of antibacterials A and B, respectively, are titrated in a rectangular fashion.
The fractional inhibitory concentration (FIC) is a mathematical expression of the effect of the combination of two antibacterial agents A and B. The FICs were calculated as the MIC of antibacterial A and antibacterial B in combination divided by the MIC of antibacterial A or antibacterial B alone.
The FICs and FIC index, respectively, are calculated according to the following equations:
FIC(A)=MIC(A in the presence of B)/MIC(A alone)
FIC(B)=MIC(B in the presence of A)/MIC(B alone)
The checkerboard titrations were performed three times.

[11] = test system: S. aureus DSM 11823, clone 16 (MSSA, quinolone-resistant); experiment: microbe, parasite or virus in culture; conditions: Staphylococcus aureus
Method: as §1, §2, §3

[12] = test system: S. aureus ATCC 29213; experiment: MIC, broth microdilution (CLSI), CAMHB; conditions: Staphylococcus aureus; monosubstance; Sa ATCC29213; read-out: MIC
Method: as §1, §2, §3

[13] = test system: E. faecalis ATCC 29212; experiment: MIC, broth microdilution (CLSI), CAMHB; conditions: Enterococcus faecalis; monosubstance; Ef ATCC29212; read-out: MIC
Method: as §1, §2, §3

[14] = test system: S. pneumoniae BAY 19397 (penicillin-, macrolide-, quinolone-resistant); experiment: MIC, broth microdilution (CLSI), CAMHB; conditions: monosubstance; Spn 19397; listed as MCB
Method: as §1, §2, §3

[15] = test system: S. pneumoniae ATCC 33400; experiment: MIC, broth microdilution (CLSI), CAMHB; conditions: Streptococcus pneumoniae; monosubstance; Spn ATCC33400; read-out: MIC
Method: as §1, §2, §3

[16] = test system: E. faecalis V583 (VanB); experiment: MIC, broth microdilution (CLSI), CAMHB; conditions: Enterococcus faecalis; monosubstance; Ef V583; read-out: MIC
Method: as §1, §2, §3

[17] = test system: S. aureus ATCC 33593 (MRSA); experiment: MIC, broth microdilution (CLSI), CAMHB; conditions: Staphylococcus aureus; monosubstance; Sa ATCC33593; read-out: MIC
Method: as §1, §2, §3

## C[C@@H]1O[C@@H]1P(=O)(O)O [fosfomycin]
[1]; single agent at 1x its MIC
  growth- and kill rates k ('+' = growth, unmarked = kill rate): 1.21 h⁻¹
  Viable counts at 8 h of exposure: 5.08 log10 CFU/mL
[1]; single agent at 2x its MIC
  growth- and kill rates k ('+' = growth, unmarked = kill rate): 1.85 h⁻¹
  Viable counts at 8 h of exposure: 3.45 log10 CFU/mL
[2]; single agent at 1x its MIC
  growth- and kill rates k ('+' = growth, unmarked = kill rate): +0.68 h^−1
  Viable counts at 8 h of exposure: 8.95 log10 CFU/mL
[2]; single agent at 2x its MIC
  growth- and kill rates k ('+' = growth, unmarked = kill rate): +0.72 h^−1
  Viable counts at 8 h of exposure: 8.59 log10 CFU/mL
[3]; strains ATCC 25922, NRZ-00401
  type of activity in time-kill: bacteriostatically
[3]; strains NRZ-00302 and GNS-2601
  type of activity in time-kill: bactericidal
[4]; single agent at 1x its MIC
  growth- and kill rates k ('+' = growth, unmarked = kill rate): +0.40 h^−1
  Viable counts at 8 h of exposure: 7.95 log10 CFU/mL
[4]; single agent at 2x its MIC
  growth- and kill rates k ('+' = growth, unmarked = kill rate): +0.32 h^−1
  Viable counts at 8 h of exposure: 6.65 log10 CFU/mL
[5]; single agent at 1x its MIC
  growth- and kill rates k ('+' = growth, unmarked = kill rate): 1.67 h⁻¹
  Viable counts at 8 h of exposure: 2.78 log10 CFU/mL
[5]; single agent at 2x its MIC
  growth- and kill rates k ('+' = growth, unmarked = kill rate): 2.09 h⁻¹
  Viable counts at 8 h of exposure: 1.30 log10 CFU/mL
[6]
  MIC: 64 µg/mL (≈ 464 µM)
[7]
  MIC: 64 µg/mL (≈ 464 µM)
[8]
  MIC: 2 µg/mL (≈ 14.5 µM)
[9]
  MIC: 2 µg/mL (≈ 14.5 µM)

## CC(=O)NC[C@H]1CN(c2ccc(OCC3(O)CCN(c4cc5c(cc4F)c(=O)c(C(=O)O)cn5C4CC4)CC3)c(F)c2)C(=O)O1 [Compound 1, 7-(4-{4-[(5S)-5-(acetylamino-methyl)-2-oxo-oxazolidin-3-yl]-2-fluoro-phenoxymethyl}-4-hydroxy-piperidin-1-yl)-1-cyclopropyl-6-fluoro-4-oxo-1,4-dihydro-quinoline-3-carboxylic acid]
[10]
  MIC: 128 to 256 µg/mL
[11]
  MIC: 0.03 µg/mL (≈ 0.0479 µM)
[1]; single agent at 1x its MIC, listed as MCB
  Viable counts at 8 h of exposure: 8.34 log10 CFU/mL and 7.34 log10 CFU/mL
[1]; single agent at 2x its MIC
  Viable counts at 8 h of exposure: 6.29 log10 CFU/mL
[2]; single agent at 1x its MIC
  Viable counts at 8 h of exposure: 4.69 log10 CFU/mL
[2]; single agent at 2x its MIC, listed as MCB
  Viable counts at 8 h of exposure: 2.61 log10 CFU/mL and 2.62 log10 CFU/mL
[4]; single agent at 1x its MIC
  Viable counts at 8 h of exposure: 6.32 log10 CFU/mL
[5]; single agent at 1x its MIC
  Viable counts at 8 h of exposure: 8.28 log10 CFU/mL
[5]; single agent at 2x its MIC
  Viable counts at 8 h of exposure: 5.69 log10 CFU/mL
[12]
  MIC: 0.25 µg/mL (≈ 0.399 µM)
[8]
  MIC: 16 µg/mL (≈ 25.5 µM)
[13]
  MIC: 0.03 µg/mL (≈ 0.0479 µM)
[14]
  MIC: 0.0004 µg/mL (≈ 0.000638 µM)
[15]
  MIC: 0.0075 µg/mL (≈ 0.012 µM)
[16]
  MIC: 0.03 µg/mL (≈ 0.0479 µM)
[17]
  MIC: 0.03 µg/mL (≈ 0.0479 µM)

— patent publication US20160113921A1, “COMBINATION THERAPY COMPRISING OXAZOLIDINONE-QUINOLONES FOR USE IN TREATING BACTERIAL INFECTIONS” (MORPHOCHEM AKTIENGESELLSCHAFT FÜR KOMBINATORISCHE CHEMIE, priority 2013, published 2016)
